From the NIST ThermoML archive (doi:10.1021/je060271a)
Several values for one entry are separate records, joined by “and”; a condition that tells them apart may be missing. Equal values may be shown once. Numbers after ± are expanded uncertainties.

Conditions: Liquid, Vibrating tube method

CCCCC(=O)OCC(COC(=O)CCCC)(COC(=O)CCCC)COC(=O)CCCC [pentaerythritol tetrapentanoate]
Conditions	mass density
283.15 K, 33510 kPa	1045.5 ± 1.3 kg/m3
283.15 K, 33550 kPa	1045.6 ± 1.3 kg/m3
283.15 K, 33599 kPa	1045.6 ± 1.3 kg/m3
283.15 K, 33639 kPa	1045.6 ± 1.3 kg/m3
283.15 K, 33681 kPa	1045.6 ± 1.3 kg/m3
283.15 K, 33731 kPa	1045.6 ± 1.3 kg/m3
283.15 K, 33772 kPa	1045.7 ± 1.3 kg/m3
283.15 K, 33815 kPa	1045.7 ± 1.3 kg/m3
283.15 K, 33865 kPa	1045.8 ± 1.3 kg/m3
283.15 K, 33908 kPa	1045.8 ± 1.3 kg/m3
283.15 K, 33951 kPa	1045.8 ± 1.3 kg/m3
283.15 K, 34004 kPa	1045.7 ± 1.3 kg/m3
283.15 K, 34048 kPa	1045.8 ± 1.3 kg/m3
283.15 K, 34093 kPa	1045.7 ± 1.3 kg/m3
283.15 K, 34144 kPa	1045.8 ± 1.3 kg/m3
283.15 K, 34173 kPa	1046 ± 1.3 kg/m3
283.15 K, 34198 kPa	1045.9 ± 1.3 kg/m3
283.15 K, 34220 kPa	1046 ± 1.3 kg/m3
283.15 K, 34242 kPa	1045.8 ± 1.3 kg/m3
283.15 K, 34265 kPa	1045.9 ± 1.3 kg/m3
283.15 K, 34290 kPa	1045.9 ± 1.3 kg/m3
283.15 K, 34312 kPa	1046 ± 1.3 kg/m3
283.15 K, 34335 kPa	1046 ± 1.3 kg/m3
283.15 K, 34364 kPa	1045.9 ± 1.3 kg/m3
283.15 K, 34387 kPa	1045.9 ± 1.3 kg/m3
283.15 K, 34410 kPa	1046 ± 1.3 kg/m3
283.15 K, 34438 kPa	1046 ± 1.3 kg/m3
283.15 K, 34461 kPa	1046 ± 1.3 kg/m3
283.15 K, 34485 kPa	1046 ± 1.3 kg/m3
283.15 K, 34516 kPa	1046.1 ± 1.3 kg/m3
283.15 K, 34542 kPa	1046 ± 1.3 kg/m3
283.15 K, 34572 kPa	1046.1 ± 1.3 kg/m3
283.15 K, 34604 kPa	1046 ± 1.3 kg/m3
283.15 K, 34620 kPa	1046.1 ± 1.3 kg/m3
283.15 K, 34636 kPa	1046 ± 1.3 kg/m3
283.15 K, 34638 kPa	1046.3 ± 1.3 kg/m3
283.15 K, 34639 kPa	1046.1 ± 1.3 kg/m3
283.16 K, 25316 kPa	1041.3 ± 1.3 kg/m3
303.15 K, 106.42 kPa	1010.9 ± 1.2 kg/m3
303.15 K, 106.59 kPa	1010.8 ± 1.2 kg/m3 and 1010.9 ± 1.2 kg/m3
303.15 K, 106.6 kPa	1010.9 ± 1.2 kg/m3 and 1010.8 ± 1.2 kg/m3
303.15 K, 106.76 kPa	1010.9 ± 1.2 kg/m3
303.15 K, 106.77 kPa	1010.9 ± 1.2 kg/m3
303.15 K, 106.94 kPa	1010.9 ± 1.2 kg/m3 and 1010.8 ± 1.2 kg/m3
303.15 K, 107.11 kPa	1010.9 ± 1.2 kg/m3
303.15 K, 107.29 kPa	1010.9 ± 1.2 kg/m3
303.15 K, 108.17 kPa	1010.9 ± 1.2 kg/m3
303.15 K, 109.2 kPa	1010.9 ± 1.2 kg/m3
303.15 K, 110.59 kPa	1010.9 ± 1.2 kg/m3
303.15 K, 112.86 kPa	1010.8 ± 1.2 kg/m3
303.15 K, 117.2 kPa	1011 ± 1.2 kg/m3
303.15 K, 123.99 kPa	1010.9 ± 1.2 kg/m3
303.15 K, 133.19 kPa	1010.9 ± 1.2 kg/m3
303.15 K, 144.48 kPa	1010.9 ± 1.2 kg/m3
303.15 K, 156.14 kPa	1010.9 ± 1.2 kg/m3
303.15 K, 171.79 kPa	1010.8 ± 1.2 kg/m3
303.15 K, 193.18 kPa	1011 ± 1.2 kg/m3
303.15 K, 228.98 kPa	1011 ± 1.2 kg/m3
303.15 K, 269.29 kPa	1010.9 ± 1.2 kg/m3
303.15 K, 314.67 kPa	1011 ± 1.2 kg/m3
303.15 K, 395.83 kPa	1011.2 ± 1.2 kg/m3
303.15 K, 513.49 kPa	1011.2 ± 1.2 kg/m3
303.15 K, 630.95 kPa	1011.3 ± 1.2 kg/m3
303.15 K, 647.46 kPa	1011.3 ± 1.2 kg/m3
303.15 K, 648.16 kPa	1011.3 ± 1.2 kg/m3
303.15 K, 649.02 kPa	1011.3 ± 1.2 kg/m3
303.15 K, 649.71 kPa	1011.3 ± 1.2 kg/m3
303.15 K, 650.58 kPa	1011.3 ± 1.2 kg/m3
303.15 K, 651.45 kPa	1011.3 ± 1.2 kg/m3
303.15 K, 652.32 kPa	1011.2 ± 1.2 kg/m3
303.15 K, 652.67 kPa	1011.3 ± 1.2 kg/m3
303.15 K, 653.36 kPa	1011.3 ± 1.2 kg/m3
303.15 K, 654.41 kPa	1011.3 ± 1.2 kg/m3
303.15 K, 654.92 kPa	1011.2 ± 1.2 kg/m3
303.15 K, 655.97 kPa	1011.2 ± 1.2 kg/m3
303.15 K, 657.2 kPa	1011.2 ± 1.2 kg/m3
303.15 K, 657.72 kPa	1011.4 ± 1.2 kg/m3
303.15 K, 658.58 kPa	1011.3 ± 1.2 kg/m3
303.15 K, 659.27 kPa	1011.1 ± 1.2 kg/m3
303.15 K, 660.31 kPa	1011.3 ± 1.2 kg/m3
303.15 K, 661.18 kPa	1011.3 ± 1.2 kg/m3
303.15 K, 661.53 kPa	1011.3 ± 1.2 kg/m3
303.15 K, 662.58 kPa	1011.2 ± 1.2 kg/m3
303.15 K, 664.14 kPa	1011.4 ± 1.2 kg/m3
303.15 K, 666.75 kPa	1011.3 ± 1.2 kg/m3
303.15 K, 667.79 kPa	1011.3 ± 1.2 kg/m3
303.15 K, 668.65 kPa	1011.3 ± 1.2 kg/m3
303.15 K, 669.35 kPa	1011.2 ± 1.2 kg/m3
303.15 K, 670.22 kPa	1011.2 ± 1.2 kg/m3
303.15 K, 675.62 kPa	1011.2 ± 1.2 kg/m3
303.15 K, 675.96 kPa	1011.2 ± 1.2 kg/m3
303.15 K, 676.49 kPa	1011.4 ± 1.2 kg/m3
303.15 K, 677.36 kPa	1011.3 ± 1.2 kg/m3
303.15 K, 678.05 kPa	1011.3 ± 1.2 kg/m3
303.15 K, 679.27 kPa	1011.2 ± 1.2 kg/m3
303.15 K, 680.14 kPa	1011.3 ± 1.2 kg/m3
303.15 K, 681.01 kPa	1011.3 ± 1.2 kg/m3
303.15 K, 681.71 kPa	1011.3 ± 1.2 kg/m3
303.15 K, 682.41 kPa	1011.2 ± 1.2 kg/m3
303.15 K, 685.7 kPa	1011.3 ± 1.2 kg/m3
303.15 K, 686.57 kPa	1011.3 ± 1.2 kg/m3
303.15 K, 688.83 kPa	1011.2 ± 1.2 kg/m3
303.15 K, 689.69 kPa	1011.2 ± 1.2 kg/m3
303.15 K, 690.56 kPa	1011.4 ± 1.2 kg/m3
303.15 K, 691.43 kPa	1011.3 ± 1.2 kg/m3
303.15 K, 692.3 kPa	1011.4 ± 1.2 kg/m3
303.15 K, 693.35 kPa	1011.3 ± 1.2 kg/m3
303.15 K, 694.56 kPa	1011.3 ± 1.2 kg/m3
303.15 K, 695.08 kPa	1011.3 ± 1.2 kg/m3
303.15 K, 696.12 kPa	1011.3 ± 1.2 kg/m3
303.15 K, 697.16 kPa	1011.3 ± 1.2 kg/m3
303.15 K, 698.02 kPa	1011.3 ± 1.2 kg/m3
303.15 K, 698.55 kPa	1011.3 ± 1.2 kg/m3
303.15 K, 699.59 kPa	1011.3 ± 1.2 kg/m3
303.15 K, 703.59 kPa	1011.2 ± 1.2 kg/m3
303.15 K, 704.11 kPa	1011.3 ± 1.2 kg/m3
303.15 K, 705.15 kPa	1011.3 ± 1.2 kg/m3
303.15 K, 706.21 kPa	1011.3 ± 1.2 kg/m3
303.15 K, 707.07 kPa	1011.3 ± 1.2 kg/m3
303.15 K, 708.28 kPa	1011.3 ± 1.2 kg/m3
303.15 K, 709.15 kPa	1011.2 ± 1.2 kg/m3
303.15 K, 710.02 kPa	1011.3 ± 1.2 kg/m3
303.15 K, 711.24 kPa	1011.3 ± 1.2 kg/m3
303.15 K, 711.93 kPa	1011.4 ± 1.2 kg/m3
303.15 K, 712.98 kPa	1011.3 ± 1.2 kg/m3
303.15 K, 713.84 kPa	1011.2 ± 1.2 kg/m3
303.15 K, 714.72 kPa	1011.3 ± 1.2 kg/m3
303.15 K, 715.75 kPa	1011.3 ± 1.2 kg/m3
303.15 K, 716.62 kPa	1011.3 ± 1.2 kg/m3
303.15 K, 717.84 kPa	1011.3 ± 1.2 kg/m3
303.15 K, 719.05 kPa	1011.4 ± 1.2 kg/m3
303.15 K, 720.1 kPa	1011.3 ± 1.2 kg/m3
303.15 K, 720.79 kPa	1011.3 ± 1.2 kg/m3
303.15 K, 721.67 kPa	1011.2 ± 1.2 kg/m3
303.15 K, 722.71 kPa	1011.3 ± 1.2 kg/m3
303.15 K, 723.76 kPa	1011.3 ± 1.2 kg/m3
303.15 K, 724.45 kPa	1011.3 ± 1.2 kg/m3
303.15 K, 725.83 kPa	1011.4 ± 1.2 kg/m3
303.15 K, 726.87 kPa	1011.3 ± 1.2 kg/m3
303.15 K, 727.92 kPa	1011.4 ± 1.2 kg/m3
303.15 K, 728.79 kPa	1011.3 ± 1.2 kg/m3
303.15 K, 730.17 kPa	1011.2 ± 1.2 kg/m3
303.15 K, 730.7 kPa	1011.4 ± 1.2 kg/m3
303.15 K, 731.58 kPa	1011.3 ± 1.2 kg/m3
303.15 K, 733.65 kPa	1011.3 ± 1.2 kg/m3
303.15 K, 734.7 kPa	1011.3 ± 1.2 kg/m3
303.15 K, 735.91 kPa	1011.2 ± 1.2 kg/m3
303.15 K, 736.78 kPa	1011.2 ± 1.2 kg/m3
303.15 K, 737.82 kPa	1011.3 ± 1.2 kg/m3
303.15 K, 739.04 kPa	1011.4 ± 1.2 kg/m3
303.15 K, 740.26 kPa	1011.3 ± 1.2 kg/m3
303.15 K, 741.3 kPa	1011.3 ± 1.2 kg/m3
303.15 K, 742.16 kPa	1011.4 ± 1.2 kg/m3
303.15 K, 743.2 kPa	1011.3 ± 1.2 kg/m3
303.15 K, 744.08 kPa	1011.2 ± 1.2 kg/m3
303.15 K, 745.47 kPa	1011.3 ± 1.2 kg/m3
303.15 K, 746.33 kPa	1011.3 ± 1.2 kg/m3
303.15 K, 747.56 kPa	1011.3 ± 1.2 kg/m3
303.15 K, 748.76 kPa	1011.4 ± 1.2 kg/m3
303.15 K, 749.63 kPa	1011.3 ± 1.2 kg/m3
303.15 K, 750.5 kPa	1011.4 ± 1.2 kg/m3
